Data from US20240209001A1, “HETEROCYCLIC DERIVATIVES AS JANUS KINASE INHIBITORS” (CHIESI FARMACEUTICI S.P. A., priority 2021, published 2024).

Experiments:
JAK 1 = JAK 1 (Homo sapiens (Human), UniProt P23458); assay: Biochemical potency on JAK1, TR-FRET LANCE Ultra kinase assay (compounds 1-92); conditions: ATP at Km, read-out: JAK1 inhibitory activity (pIC50 class) (converted)
Method in brief: (§1)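 TR-FRET (LANCE Ultra) phosphorylation of ULight-JAK-1 peptide, ATP at Km: JAK1/JAK2/JAK3/TYK2 peptide 30/50/20/10 nM, ATP 20/0.7/0.2/12 μM, enzyme 0.15/0.083/0.025/0.144 ng/μL. 11-point 5-fold series from 20 μM; 1.5 h RT, EDTA stop, Eu-anti-pTyr detection 1 h; IC50 by variable-slope fit.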

JAK 2 = JAK 2 (Homo sapiens (Human), UniProt O60674); assay: Biochemical potency on JAK2, TR-FRET LANCE Ultra kinase assay (compounds 1-92); conditions: ATP at Km, read-out: JAK2 inhibitory activity (pIC50 class) (converted)
Chain of JAK 2 (O60674 whole entry): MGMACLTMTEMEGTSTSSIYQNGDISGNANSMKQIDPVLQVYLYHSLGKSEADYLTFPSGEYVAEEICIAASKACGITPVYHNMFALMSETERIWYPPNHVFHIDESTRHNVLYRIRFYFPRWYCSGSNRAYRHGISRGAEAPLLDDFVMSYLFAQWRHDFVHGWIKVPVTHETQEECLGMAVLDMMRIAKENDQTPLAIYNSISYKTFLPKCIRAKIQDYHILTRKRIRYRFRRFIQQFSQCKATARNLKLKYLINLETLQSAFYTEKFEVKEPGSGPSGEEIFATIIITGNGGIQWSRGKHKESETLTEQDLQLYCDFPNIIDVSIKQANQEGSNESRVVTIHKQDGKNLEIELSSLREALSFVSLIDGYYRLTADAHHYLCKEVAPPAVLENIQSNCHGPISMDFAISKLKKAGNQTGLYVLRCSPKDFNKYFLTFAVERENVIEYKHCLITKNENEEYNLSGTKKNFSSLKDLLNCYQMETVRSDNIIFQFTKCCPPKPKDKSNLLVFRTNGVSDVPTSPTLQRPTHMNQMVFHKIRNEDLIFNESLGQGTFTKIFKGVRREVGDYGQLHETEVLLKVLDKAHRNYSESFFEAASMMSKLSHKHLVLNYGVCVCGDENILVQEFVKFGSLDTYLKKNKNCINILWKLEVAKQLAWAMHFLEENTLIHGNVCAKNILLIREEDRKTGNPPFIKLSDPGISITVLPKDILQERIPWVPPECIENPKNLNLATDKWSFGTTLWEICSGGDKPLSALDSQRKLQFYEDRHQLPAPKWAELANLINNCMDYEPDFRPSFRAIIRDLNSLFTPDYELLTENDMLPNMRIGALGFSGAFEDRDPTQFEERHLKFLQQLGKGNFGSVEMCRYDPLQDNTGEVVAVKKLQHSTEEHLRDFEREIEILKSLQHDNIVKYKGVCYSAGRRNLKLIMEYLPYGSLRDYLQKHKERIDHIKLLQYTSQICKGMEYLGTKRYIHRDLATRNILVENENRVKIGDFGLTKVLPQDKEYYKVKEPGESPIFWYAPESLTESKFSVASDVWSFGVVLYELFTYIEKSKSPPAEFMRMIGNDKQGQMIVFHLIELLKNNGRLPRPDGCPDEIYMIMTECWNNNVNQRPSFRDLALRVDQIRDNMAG
Method in brief: as §1

JAK 3 = JAK 3 (Homo sapiens (Human), UniProt P52333); assay: Biochemical potency on JAK3, TR-FRET LANCE Ultra kinase assay (compounds 1-92); conditions: ATP at Km, read-out: JAK3 inhibitory activity (pIC50 class) (converted)
Chain of JAK 3 (P52333 whole entry): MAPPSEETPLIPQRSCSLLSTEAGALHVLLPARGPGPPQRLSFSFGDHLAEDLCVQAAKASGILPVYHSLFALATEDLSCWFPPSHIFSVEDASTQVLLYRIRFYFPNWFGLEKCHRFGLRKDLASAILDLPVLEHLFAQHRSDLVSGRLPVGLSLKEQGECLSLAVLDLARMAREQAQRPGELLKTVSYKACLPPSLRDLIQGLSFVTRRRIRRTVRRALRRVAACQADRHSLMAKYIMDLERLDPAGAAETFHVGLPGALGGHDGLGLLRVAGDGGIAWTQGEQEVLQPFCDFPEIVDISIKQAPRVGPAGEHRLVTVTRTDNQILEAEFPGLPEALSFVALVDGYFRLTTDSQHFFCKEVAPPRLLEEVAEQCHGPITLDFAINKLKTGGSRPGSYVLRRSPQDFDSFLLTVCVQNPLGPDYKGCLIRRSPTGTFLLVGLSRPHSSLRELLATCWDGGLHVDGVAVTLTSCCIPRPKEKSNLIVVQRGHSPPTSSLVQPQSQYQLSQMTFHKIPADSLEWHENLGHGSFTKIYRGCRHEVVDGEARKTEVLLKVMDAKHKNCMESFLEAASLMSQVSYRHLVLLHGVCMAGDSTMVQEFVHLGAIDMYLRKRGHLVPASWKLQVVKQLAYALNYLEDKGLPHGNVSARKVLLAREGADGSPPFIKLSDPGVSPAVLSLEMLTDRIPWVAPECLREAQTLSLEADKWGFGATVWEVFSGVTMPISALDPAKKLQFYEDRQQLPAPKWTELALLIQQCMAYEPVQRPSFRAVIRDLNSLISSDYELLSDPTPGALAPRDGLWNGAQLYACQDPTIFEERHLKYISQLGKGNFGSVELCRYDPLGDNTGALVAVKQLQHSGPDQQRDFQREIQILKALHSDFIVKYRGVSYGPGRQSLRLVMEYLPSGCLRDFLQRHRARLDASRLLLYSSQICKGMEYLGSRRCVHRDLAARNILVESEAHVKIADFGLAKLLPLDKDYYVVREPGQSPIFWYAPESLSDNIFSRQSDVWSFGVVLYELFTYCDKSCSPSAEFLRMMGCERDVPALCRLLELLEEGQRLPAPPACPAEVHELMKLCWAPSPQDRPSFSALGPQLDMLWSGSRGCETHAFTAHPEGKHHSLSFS
Method in brief: as §1

TYK2 = TYK2 (Homo sapiens (Human), UniProt P29597); assay: Biochemical potency on Tyk2, TR-FRET LANCE Ultra kinase assay (compounds 1-92); conditions: ATP at Km, read-out: Tyk2 inhibitory activity (pIC50 class) (converted)
Chain of TYK2 (P29597 whole entry): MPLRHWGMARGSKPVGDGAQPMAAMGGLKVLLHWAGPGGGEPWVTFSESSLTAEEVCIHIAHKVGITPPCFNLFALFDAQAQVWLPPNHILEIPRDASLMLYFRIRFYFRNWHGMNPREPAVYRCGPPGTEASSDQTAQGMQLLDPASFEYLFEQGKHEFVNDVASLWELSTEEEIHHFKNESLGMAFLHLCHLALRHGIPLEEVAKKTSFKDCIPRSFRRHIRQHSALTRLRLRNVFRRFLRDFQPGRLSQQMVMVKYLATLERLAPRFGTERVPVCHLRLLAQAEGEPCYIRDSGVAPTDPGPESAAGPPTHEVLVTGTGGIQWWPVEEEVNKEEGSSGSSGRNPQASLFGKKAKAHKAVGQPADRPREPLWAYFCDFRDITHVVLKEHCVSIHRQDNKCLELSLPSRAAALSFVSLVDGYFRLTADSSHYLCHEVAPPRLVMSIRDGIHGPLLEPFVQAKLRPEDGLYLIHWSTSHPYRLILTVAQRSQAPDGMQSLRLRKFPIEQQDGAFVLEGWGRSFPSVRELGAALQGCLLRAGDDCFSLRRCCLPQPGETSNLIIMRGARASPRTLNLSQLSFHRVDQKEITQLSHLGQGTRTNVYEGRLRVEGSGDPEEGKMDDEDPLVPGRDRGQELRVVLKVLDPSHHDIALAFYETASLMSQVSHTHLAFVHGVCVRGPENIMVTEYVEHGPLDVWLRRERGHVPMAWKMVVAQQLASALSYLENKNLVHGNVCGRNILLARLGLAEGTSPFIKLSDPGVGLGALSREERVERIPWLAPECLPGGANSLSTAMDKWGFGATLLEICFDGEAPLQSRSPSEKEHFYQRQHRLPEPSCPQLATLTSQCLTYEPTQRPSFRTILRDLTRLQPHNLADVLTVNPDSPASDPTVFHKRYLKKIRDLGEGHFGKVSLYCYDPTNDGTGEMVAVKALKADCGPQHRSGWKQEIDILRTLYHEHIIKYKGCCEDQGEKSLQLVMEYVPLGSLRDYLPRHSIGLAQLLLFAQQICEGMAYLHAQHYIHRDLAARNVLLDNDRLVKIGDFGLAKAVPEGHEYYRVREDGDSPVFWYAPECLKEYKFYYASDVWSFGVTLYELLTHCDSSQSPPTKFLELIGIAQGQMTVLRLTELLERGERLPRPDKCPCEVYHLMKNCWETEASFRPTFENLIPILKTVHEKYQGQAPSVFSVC
Method in brief: as §1

Chain of JAK 1 (P23458 whole entry): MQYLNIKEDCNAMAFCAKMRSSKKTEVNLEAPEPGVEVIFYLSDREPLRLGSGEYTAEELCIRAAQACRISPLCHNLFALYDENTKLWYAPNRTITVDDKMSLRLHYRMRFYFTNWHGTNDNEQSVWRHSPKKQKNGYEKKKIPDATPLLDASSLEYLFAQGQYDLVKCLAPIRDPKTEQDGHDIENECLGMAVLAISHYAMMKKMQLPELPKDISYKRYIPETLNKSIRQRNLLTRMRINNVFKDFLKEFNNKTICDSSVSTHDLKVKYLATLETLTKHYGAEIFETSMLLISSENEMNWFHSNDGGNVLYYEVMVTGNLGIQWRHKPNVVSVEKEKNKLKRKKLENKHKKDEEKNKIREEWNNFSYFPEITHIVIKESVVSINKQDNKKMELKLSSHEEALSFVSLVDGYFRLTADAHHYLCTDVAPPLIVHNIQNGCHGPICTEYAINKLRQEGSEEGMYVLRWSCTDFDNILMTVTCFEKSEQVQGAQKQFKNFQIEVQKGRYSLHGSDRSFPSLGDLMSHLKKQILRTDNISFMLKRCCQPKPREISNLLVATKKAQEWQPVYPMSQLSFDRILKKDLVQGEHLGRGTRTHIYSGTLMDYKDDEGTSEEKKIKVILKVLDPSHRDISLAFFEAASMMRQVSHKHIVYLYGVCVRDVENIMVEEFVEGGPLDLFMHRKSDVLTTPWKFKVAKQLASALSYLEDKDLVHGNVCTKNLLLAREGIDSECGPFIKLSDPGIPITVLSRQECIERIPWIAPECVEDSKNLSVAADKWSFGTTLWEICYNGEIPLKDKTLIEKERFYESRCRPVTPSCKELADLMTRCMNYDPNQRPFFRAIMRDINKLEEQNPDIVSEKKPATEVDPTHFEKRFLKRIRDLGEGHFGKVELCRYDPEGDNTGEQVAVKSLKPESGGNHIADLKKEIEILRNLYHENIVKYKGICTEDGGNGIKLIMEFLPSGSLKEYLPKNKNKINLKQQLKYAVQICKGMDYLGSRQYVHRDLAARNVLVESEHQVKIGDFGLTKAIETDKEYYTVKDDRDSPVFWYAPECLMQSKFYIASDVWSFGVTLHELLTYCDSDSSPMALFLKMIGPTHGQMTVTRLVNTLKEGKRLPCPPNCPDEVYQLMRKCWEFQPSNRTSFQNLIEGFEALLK

| IC50 (JAK 1) [nM] | IC50 (JAK 2) [nM] | IC50 (JAK 3) [nM] | IC50 (TYK2) [nM] | Structure (SMILES) |
| --- | --- | --- | --- | --- |
| 5.01 to 50.1 | ≤ 5.01 | 5.01 to 50.1 | 5.01 to 50.1 | COc1cc(NS(=O)(=O)C2CC2)ccc1-n1nc(NCCN(C)C)c2cnc(-c3cnn4cccnc34)cc21 [Example 32, N-(4-(3-((2-(dimethylamino)ethyl)amino)-6-(pyrazolo[1,5-a]pyrimidin-3-yl)-1H-pyrazolo[4,3-c]pyridin-1-yl)-3-methoxyphenyl)cyclopropanesulfonamide] |
| 5.01 to 50.1 | 5.01 to 50.1 | 5.01 to 50.1 | 5.01 to 50.1 | COc1cc(NS(C)(=O)=O)ccc1-n1nc(N(C)CCN2CCOCC2)c2cnc(-c3cnn4cccnc34)cc21 [Example 40, N-(3-methoxy-4-(3-(methyl(2-morpholinoethyl)amino)-6-(pyrazolo[1,5-a]pyrimidin-3-yl)-1H-pyrazolo[4,3-c]pyridin-1-yl)phenyl)methanesulfonamide] |
| 5.01 to 50.1 | ≤ 5.01 | 5.01 to 50.1 | > 50.1 | COc1cc(NS(=O)(=O)C2CCOCC2)ccc1-n1nc(C)c2cnc(-c3cnn4cccnc34)cc21 [Example 3, N-(3-methoxy-4-(3-methyl-6-(pyrazolo[1,5-a]pyrimidin-3-yl)-1H-pyrazolo[4,3-c]pyridin-1-yl)phenyl)tetrahydro-2H-pyran-4-sulfonamide] |
| ≤ 5.01 | ≤ 5.01 | ≤ 5.01 | 5.01 to 50.1 | COc1cc(NS(C)(=O)=O)ccc1-n1nc(NCCN2C3CCC2COC3)c2cnc(-c3cnn4cccnc34)cc21 [Example 30, N-(4-(3-((2-(3-oxa-8-azabicyclo[3.2.1]octan-8-yl)ethyl)amino)-6-(pyrazolo[1,5-a]pyrimidin-3-yl)-1H-pyrazolo[4,3-c]pyridin-1-yl)-3-methoxyphenyl)methanesulfonamide] |
| ≤ 5.01 | ≤ 5.01 | ≤ 5.01 | 5.01 to 50.1 | COc1cc(CN(C)S(C)(=O)=O)ccc1-n1nc(C)c2cnc(-c3cnn4cccnc34)cc21 [Example 65, N-(3-methoxy-4-(3-methyl-6-(pyrazolo[1,5-a]pyrimidin-3-yl)-1H-pyrazolo[4,3-c]pyridin-1-yl)benzyl)-N-methylmethanesulfonamide] |
| 5.01 to 50.1 | 5.01 to 50.1 | 5.01 to 50.1 | > 50.1 | COc1cc(C(=O)Nc2ccccc2)ccc1-n1nc(C)c2cnc(-c3cnn4cccnc34)cc21 [Example 20, 3-methoxy-4-(3-methyl-6-(pyrazolo[1,5-a]pyrimidin-3-yl)-1H-pyrazolo[4,3-c]pyridin-1-yl)-N-phenylbenzamide] |
| 5.01 to 50.1 | 5.01 to 50.1 | 5.01 to 50.1 | > 50.1 | COc1cc(NS(=O)(=O)C2CC2)cnc1-n1nc(NCCN(C)C)c2cnc(-c3cnn4cccnc34)cc21 [Example 29, N-(6-(3-((2-(dimethylamino)ethyl)amino)-6-(pyrazolo[1,5-a]pyrimidin-3-yl)-1H-pyrazolo[4,3-c]pyridin-1-yl)-5-methoxypyridin-3-yl)cyclopropanesulfonamide] |
| ≤ 5.01 | 5.01 to 50.1 | 5.01 to 50.1 | 5.01 to 50.1 | COc1cc(CNS(C)(=O)=O)c(Cl)cc1-n1nc(NCCN2CCOCC2)c2cnc(-c3cnn4cccnc34)cc21 [Example 58, N-(2-chloro-5-methoxy-4-(3-((2-morpholinoethyl)amino)-6-(pyrazolo[1,5-a]pyrimidin-3-yl)-1H-pyrazolo[4,3-c]pyridin-1-yl)benzyl)methanesulfonamide] |
| ≤ 5.01 | ≤ 5.01 | ≤ 5.01 | 5.01 to 50.1 | COc1cc(NS(C)(=O)=O)ccc1-n1nc(NCCN(C)CCF)c2cnc(-c3cnn4cccnc34)cc21 [Example 39, N-(4-(3-((2-((2-fluoroethyl)(methyl)amino)ethyl)amino)-6-(pyrazolo[1,5-a]pyrimidin-3-yl)-1H-pyrazolo[4,3-c]pyridin-1-yl)-3-methoxyphenyl)methanesulfonamide] |
| 5.01 to 50.1 | 5.01 to 50.1 | 5.01 to 50.1 | 5.01 to 50.1 | COc1cc(NS(C)(=O)=O)ccc1-n1nc(NC(=O)C2CCN(C)C2)c2cnc(-c3cnn4cccnc34)cc21 (racemic) [Example 42, N-(1-(2-methoxy-4-(methylsulfonamido)phenyl)-6-(pyrazolo[1,5-a]pyrimidin-3-yl)-1H-pyrazolo[4,3-c]pyridin-3-yl)-1-methylpyrrolidine-3-carboxamide] |
| ≤ 5.01 | ≤ 5.01 | ≤ 5.01 | 5.01 to 50.1 | COc1cc(NS(C)(=O)=O)ccc1-n1nc(N)c2cnc(-c3cnn4cccnc34)cc21 [Example 79, N-(4-(3-amino-6-(pyrazolo[1,5-a]pyrimidin-3-yl)-1H-pyrazolo[4,3-c]pyridin-1-yl)-3-methoxyphenyl)methanesulfonamide] |
| ≤ 5.01 | ≤ 5.01 | ≤ 5.01 | 5.01 to 50.1 | COc1cc(NS(C)(=O)=O)ccc1-n1nc(C(=O)NCCN(C)C)c2cnc(-c3cnn4cccnc34)cc21 [Example 44, N-(2-(dimethylamino)ethyl)-1-(2-methoxy-4-(methylsulfonamido)phenyl)-6-(pyrazolo[1,5-a]pyrimidin-3-yl)-1H-pyrazolo[4,3-c]pyridine-3-carboxamide] |
| ≤ 5.01 | ≤ 5.01 | ≤ 5.01 | 5.01 to 50.1 | COc1cc(NS(C)(=O)=O)ccc1-n1nc(NCCN(C)C)c2cnc(-c3cnn4cccnc34)cc21 [Example 31, N-(4-(3-((2-(dimethylamino)ethyl)amino)-6-(pyrazolo[1,5-a]pyrimidin-3-yl)-1H-pyrazolo[4,3-c]pyridin-1-yl)-3-methoxyphenyl)methanesulfonamide] |
| ≤ 5.01 | ≤ 5.01 | ≤ 5.01 | 5.01 to 50.1 | COc1cc(NS(=O)(=O)CC(N)=O)ccc1-n1nc(C)c2cnc(-c3cnn4cccnc34)cc21 [Example 14, 2-(N-(3-methoxy-4-(3-methyl-6-(pyrazolo[1,5-a]pyrimidin-3-yl)-1H-pyrazolo[4,3-c]pyridin-1-yl)phenyl)sulfamoyl)acetamide] |
| 5.01 to 50.1 | 5.01 to 50.1 | 5.01 to 50.1 | > 50.1 | COc1cc(C#N)ccc1-n1nc(C)c2cnc(-c3cnn4cccnc34)cc21 [Example 15, 3-methoxy-4-(3-methyl-6-(pyrazolo[1,5-a]pyrimidin-3-yl)-1H-pyrazolo[4,3-c]pyridin-1-yl)benzonitrile] |
| ≤ 5.01 | ≤ 5.01 | 5.01 to 50.1 | 5.01 to 50.1 | COc1cc(NS(=O)(=O)C2CC2)ccc1-n1nc(CC#N)c2cnc(-c3cnn4cccnc34)cc21 [Example 84, N-(4-(3-(cyanomethyl)-6-(pyrazolo[1,5-a]pyrimidin-3-yl)-1H-pyrazolo[4,3-c]pyridin-1-yl)-3-methoxyphenyl)cyclopropanesulfonamide] |
| ≤ 5.01 | ≤ 5.01 | ≤ 5.01 | 5.01 to 50.1 | CNc1nn(-c2ccc(NS(C)(=O)=O)cc2OC)c2cc(-c3cnn4cccnc34)ncc12 [Example 23, N-(3-methoxy-4-(3-(methylamino)-6-(pyrazolo[1,5-a]pyrimidin-3-yl)-1H-pyrazolo[4,3-c]pyridin-1-yl)phenyl)methanesulfonamide] |
| ≤ 5.01 | ≤ 5.01 | ≤ 5.01 | 5.01 to 50.1 | Cc1nn(-c2ccc(NS(C)(=O)=O)cc2OC(F)F)c2cc(-c3cnn4cccnc34)ncc12 [Example 7, N-(3-(difluoromethoxy)-4-(3-methyl-6-(pyrazolo[1,5-a]pyrimidin-3-yl)-1H-pyrazolo[4,3-c]pyridin-1-yl)phenyl)methanesulfonamide] |
| ≤ 5.01 | ≤ 5.01 | 5.01 to 50.1 | 5.01 to 50.1 | COc1cc(NS(=O)(=O)c2cnn(C)c2)ccc1-n1nc(C)c2cnc(-c3cnn4cccnc34)cc21 [Example 10, N-(3-methoxy-4-(3-methyl-6-(pyrazolo[1,5-a]pyrimidin-3-yl)-1H-pyrazolo[4,3-c]pyridin-1-yl)phenyl)-1-methyl-1H-pyrazole-4-sulfonamide] |
| 5.01 to 50.1 | 5.01 to 50.1 | 5.01 to 50.1 | 5.01 to 50.1 | COc1cc(NS(=O)(=O)C2CC2)ccc1-n1nc(NCCN2CCCCC2)c2cnc(-c3cnn4cccnc34)cc21 [Example 36, N-(3-methoxy-4-(3-((2-(piperidin-1-yl)ethyl)amino)-6-(pyrazolo[1,5-a]pyrimidin-3-yl)-1H-pyrazolo[4,3-c]pyridin-1-yl)phenyl)cyclopropanesulfonamide] |
| ≤ 5.01 | ≤ 5.01 | ≤ 5.01 | > 50.1 | COc1cc(NS(C)(=O)=O)cnc1-n1nc(C)c2cnc(-c3cnn4cccnc34)cc21 [Example 11, N-(5-methoxy-6-(3-methyl-6-(pyrazolo[1,5-a]pyrimidin-3-yl)-1H-pyrazolo[4,3-c]pyridin-1-yl)pyridin-3-yl)methanesulfonamide] |
| ≤ 5.01 | ≤ 5.01 | ≤ 5.01 | ≤ 5.01 | COc1cc(NS(C)(=O)=O)ccc1-n1nc(C)c2cnc(Nc3ncc[nH]c3=O)cc21 [Example 85, N-(3-methoxy-4-(3-methyl-6-((3-oxo-3,4-dihydropyrazin-2-yl)amino)-1H-pyrazolo[4,3-c]pyridin-1-yl)phenyl)methanesulfonamide] |
